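Test compounds were applied to cells in 96-well plates for 48 hours at 5 doses. GI50 is the concentration that inhibits growth by half. The concentration for full growth arrest is given as TGI.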

Some test systems named below: CAKI-1 renal; IGROV1 ovarian; LOX IMVI melanoma; MOLT-4 leukemia; NCI-H460 lung; OVCAR-5 ovarian; PC-3 prostate; SK-MEL-5 melanoma; TK-10 renal; UACC-62 melanoma.
What all share (assay): NCI tumour cell line growth inhibition, 48 h

Turning to `O=C(/C=C1\N=C(c2ccccc2)N(c2nc3c(Cl)cc(Cl)cc3s2)C1=O)/C=C/c1ccccc1`, the TGI with CAKI-1 renal, with IGROV1 ovarian, with LOX IMVI melanoma, in the assay with MOLT-4 leukemia, in the assay with NCI-H460 lung and in the assay with OVCAR-5 ovarian was > 100 µM throughout. Moreover, the TGI with PC-3 prostate, in the assay on SK-MEL-5 melanoma, in the assay on TK-10 renal and in the assay with UACC-62 melanoma was > 100 µM each time.
With `COC(=O)C1CC23C4=C(CCC41)CCC1CN4CC(C)C(CC(OC(C)=O)C12COC(C)=O)C43O` (stereo not given), the TGI in the assay on CAKI-1 renal, in the assay with IGROV1 ovarian, in the assay with LOX IMVI melanoma, in the assay on MOLT-4 leukemia, in the assay on NCI-H460 lung and in the assay on OVCAR-5 ovarian was > 100 µM each time. In addition, the TGI with PC-3 prostate, with SK-MEL-5 melanoma, with TK-10 renal and in the assay on UACC-62 melanoma was > 100 µM throughout.
In the case of `C[N+]1(CCC(=O)c2ccccc2)CCC2CCC(C2)C1` (stereo not given), the TGI in the assay with CAKI-1 renal, in the assay with IGROV1 ovarian, in the assay with LOX IMVI melanoma, in the assay with MOLT-4 leukemia, in the assay on NCI-H460 lung and with OVCAR-5 ovarian was > 100 µM in each case. The TGI in the assay on PC-3 prostate, with SK-MEL-5 melanoma, with TK-10 renal and in the assay with UACC-62 melanoma was > 100 µM each time.
For the compound `CN(C)C(=O)OC1=CC2CCC(C1)N2C` (stereo not given), the TGI with CAKI-1 renal, in the assay on IGROV1 ovarian, with LOX IMVI melanoma, in the assay with MOLT-4 leukemia, with NCI-H460 lung and in the assay with OVCAR-5 ovarian was > 100 µM each time. The TGI in the assay with PC-3 prostate, in the assay with SK-MEL-5 melanoma, in the assay with TK-10 renal and with UACC-62 melanoma was > 100 µM each time.
For `Cc1ccc2nc(-c3ccc(NC(=O)c4ccc(N)cc4)c(S(=O)(=O)O)c3)sc2c1`, the TGI with CAKI-1 renal, in the assay with IGROV1 ovarian, with LOX IMVI melanoma, in the assay with MOLT-4 leukemia, in the assay with NCI-H460 lung and in the assay on OVCAR-5 ovarian was > 100 µM throughout. Moreover, the TGI in the assay on PC-3 prostate, in the assay on SK-MEL-5 melanoma, with TK-10 renal and in the assay with UACC-62 melanoma was > 100 µM in each case.
As to `O=C1C2Cc3c(n(C(=O)c4ccccc4)c4ccccc34)CC2C(=O)N1c1ccc(Nc2ccc(N3C(=O)C4Cc5c(n(C(=O)c6ccccc6)c6ccccc56)CC4C3=O)cc2)cc1` (stereo not given), the TGI with CAKI-1 renal, with IGROV1 ovarian, with LOX IMVI melanoma, with MOLT-4 leukemia, with NCI-H460 lung and with OVCAR-5 ovarian was > 100 µM in each case. The TGI in the assay on PC-3 prostate, with SK-MEL-5 melanoma, in the assay with TK-10 renal and with UACC-62 melanoma was > 100 µM each time.
`O=C(CC(c1ccccc1)C1C(=O)NC(=S)NC1=O)c1ccc([N+](=O)[O-])cc1` (stereo not given): the TGI in the assay on CAKI-1 renal was 59.4 µM; in the assay with IGROV1 ovarian it was > 100 µM; with LOX IMVI melanoma, > 100 µM; with MOLT-4 leukemia it was > 100 µM; in the assay on NCI-H460 lung it was > 100 µM; with OVCAR-5 ovarian, > 100 µM. The TGI in the assay on PC-3 prostate, in the assay on SK-MEL-5 melanoma, in the assay with TK-10 renal and in the assay with UACC-62 melanoma was > 100 µM throughout.
Consider `CC1=CC(O)C(C(O)(C(F)(F)F)C(F)(F)F)C(C)(C)C1` (stereo not given), for which the TGI with CAKI-1 renal was > 10 µM; in the assay with IGROV1 ovarian it was 0.986 µM; in the assay with LOX IMVI melanoma it was > 10 µM; in the assay on MOLT-4 leukemia, > 10 µM; in the assay with NCI-H460 lung, > 10 µM; with OVCAR-5 ovarian, > 10 µM. Besides, the TGI in the assay on PC-3 prostate was > 10 µM; in the assay with SK-MEL-5 melanoma, 0.163 µM; with TK-10 renal, > 10 µM; in the assay with UACC-62 melanoma, > 10 µM.
For the compound `CS(C)(=O)=Nn1c(=O)n2n(c1=O)C1c3ccccc3C2c2ccccc21`, the TGI in the assay on CAKI-1 renal, with IGROV1 ovarian, in the assay on LOX IMVI melanoma, with MOLT-4 leukemia, with NCI-H460 lung and in the assay on OVCAR-5 ovarian was > 100 µM throughout. Also, the TGI with PC-3 prostate, with SK-MEL-5 melanoma, in the assay on TK-10 renal and with UACC-62 melanoma was > 100 µM each time.
For `CC1(C(=O)O)C[C@](C)(C(=O)OCc2ccccc2)C[C@](C)(C(=O)OCc2ccccc2)C1` (stereo not given in full), the TGI is 71.2 µM in the assay with CAKI-1 renal; 52.7 µM with IGROV1 ovarian; 92.4 µM in the assay with LOX IMVI melanoma; 67.6 µM in the assay with MOLT-4 leukemia; 57.5 µM in the assay with NCI-H460 lung; > 100 µM in the assay on OVCAR-5 ovarian. Besides, the TGI in the assay on PC-3 prostate is > 100 µM; in the assay on SK-MEL-5 melanoma it was > 100 µM; with TK-10 renal, > 100 µM; with UACC-62 melanoma it was 45.4 µM.
For `O=C(Nc1ccc(-n2ccc3c(NC(=O)c4ccccc4)nccc32)cc1)Nc1cccc(C(F)(F)F)c1`, the GI50 in the assay with CAKI-1 renal is 10.8 µM; in the assay with IGROV1 ovarian, 10 µM; in the assay with LOX IMVI melanoma, 2.38 µM; with MOLT-4 leukemia, 2.65 µM; in the assay with NCI-H460 lung, 2.74 µM; in the assay with OVCAR-5 ovarian it was 8.72 µM. For the same compound, the GI50 with PC-3 prostate is 1.8 µM; with SK-MEL-5 melanoma, 7.2 µM; in the assay on TK-10 renal it was 3.87 µM; in the assay on UACC-62 melanoma, 7.36 µM. In addition, the TGI was 37.4 µM with CAKI-1 renal; 30.9 µM in the assay on IGROV1 ovarian; 10.9 µM in the assay with LOX IMVI melanoma; 10.9 µM in the assay on MOLT-4 leukemia; 13.4 µM in the assay with NCI-H460 lung; 22.2 µM with OVCAR-5 ovarian. Further, the TGI with PC-3 prostate stood at 8.56 µM; with SK-MEL-5 melanoma it was 20.7 µM; with TK-10 renal it was 18.8 µM; in the assay on UACC-62 melanoma, 20.4 µM.
For the compound `COC(=O)C1=C(OC(=O)/C=C/c2ccc(Cl)cc2)C(C(=O)OC)[C@]2(O)[C@@H](C(=O)OC)[C@H]1C[C@@H](c1ccccc1)[C@@H]2C(=O)OC` (stereo not given in full), the TGI with CAKI-1 renal was > 100 µM; in the assay on IGROV1 ovarian it was > 25.9 µM; in the assay with LOX IMVI melanoma it was > 70.4 µM; in the assay with MOLT-4 leukemia it was > 100 µM; with NCI-H460 lung it was > 100 µM; with OVCAR-5 ovarian it was > 100 µM. The TGI was > 47.6 µM in the assay with PC-3 prostate, 12.7 µM with SK-MEL-5 melanoma, > 100 µM with TK-10 renal and > 100 µM with UACC-62 melanoma.

For the origin of these results see PubChem BioAssay (NCI).
